Laboratory results taken from ChEMBL document CHEMBL4418264, “2,4,5-trisubstituted thiazole compounds,preparation methods,pharmaceutical compositions and medical uses thereof” (2014).

Columns and labels:
[1] = target: T1, Cholesteryl ester transfer protein (Homo sapiens) (UniProt P11597); assay: Inhibition of CETP (unknown origin) at 500 uM incubated for 0.5 hrs by double illuminometer/fluorescence counter method relative to control
T1 sequence (whole entry): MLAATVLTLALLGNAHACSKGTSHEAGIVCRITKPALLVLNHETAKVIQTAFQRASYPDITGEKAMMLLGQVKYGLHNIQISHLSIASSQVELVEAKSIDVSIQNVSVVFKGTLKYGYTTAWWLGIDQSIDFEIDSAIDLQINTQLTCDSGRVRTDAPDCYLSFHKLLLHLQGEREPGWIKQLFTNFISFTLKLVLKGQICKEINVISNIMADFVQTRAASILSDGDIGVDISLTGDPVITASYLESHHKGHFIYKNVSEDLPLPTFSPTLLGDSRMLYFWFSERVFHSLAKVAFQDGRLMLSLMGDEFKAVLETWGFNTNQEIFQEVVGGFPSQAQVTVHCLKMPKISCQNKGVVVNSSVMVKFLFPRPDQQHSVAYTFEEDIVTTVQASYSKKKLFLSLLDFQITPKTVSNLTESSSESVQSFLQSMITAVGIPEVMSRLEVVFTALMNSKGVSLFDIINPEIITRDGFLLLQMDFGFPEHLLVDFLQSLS

[2] = target: Phospholipid transfer protein (Homo sapiens) (UniProt P55058); assay: Inhibition of PLTP in plasma (unknown origin) assessed as reduction in phospholipid transfer from phospholipid liposome to HDL at 500 uM measured after 1 hr relative to control; format: cell-free
[3] = target: Phospholipid transfer protein (Homo sapiens) (UniProt P55058); assay: Inhibition of PLTP in plasma (unknown origin) assessed as reduction in phospholipid transfer from phospholipid liposome to HDL at 150 uM measured after 1 hr relative to control; format: cell-free
[4] = target: Phospholipid transfer protein (Homo sapiens) (UniProt P55058); assay: Inhibition of PLTP in plasma (unknown origin) assessed as reduction in phospholipid transfer from phospholipid liposome to HDL at 250 uM measured after 1 hr relative to control; format: cell-free

Chain of Phospholipid transfer protein (Homo sapiens) (P55058 whole entry): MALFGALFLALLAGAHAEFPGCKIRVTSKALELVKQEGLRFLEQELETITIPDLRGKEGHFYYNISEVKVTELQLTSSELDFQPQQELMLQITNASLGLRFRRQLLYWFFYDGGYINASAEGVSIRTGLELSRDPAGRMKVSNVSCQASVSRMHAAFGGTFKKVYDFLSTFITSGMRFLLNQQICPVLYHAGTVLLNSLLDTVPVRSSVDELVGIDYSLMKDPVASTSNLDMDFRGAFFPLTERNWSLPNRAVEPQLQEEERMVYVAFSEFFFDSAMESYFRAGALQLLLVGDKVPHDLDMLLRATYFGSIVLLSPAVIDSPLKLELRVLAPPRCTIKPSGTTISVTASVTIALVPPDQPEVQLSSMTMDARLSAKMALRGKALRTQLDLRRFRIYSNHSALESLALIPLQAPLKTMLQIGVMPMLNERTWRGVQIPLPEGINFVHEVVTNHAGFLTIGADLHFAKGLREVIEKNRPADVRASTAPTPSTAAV

SMILES | inhibition [1] | inhibition [2] | inhibition [3] | inhibition [4]
COc1ccc(-c2nc(N3CCOCC3)sc2Cc2ccccc2)cc1 | 91.6% | 61% |  | 
COc1ccc(C(=O)Nc2nc(-c3ccc(O)cc3)c(Cc3ccccc3)s2)cc1 | 71.6% |  | 0% | 
O=C(Nc1nc(-c2ccc(O)cc2)c(Cc2ccccc2)s1)c1ccc(O)c(O)c1 | 19.4% |  |  | 79.8%
CCCCc1sc(N)nc1-c1ccc(OC)cc1 | 65.4% |  |  | 15.3%
O=C(Nc1nc(-c2ccc(O)cc2)c(Cc2ccc(F)cc2)s1)c1ccc(O)c(O)c1 | 9.2% |  |  | 73.2%
COc1ccc(-c2nc(N)sc2Cc2ccc(F)cc2)cc1 | 52.8% |  |  | 11.5%
CCCCc1sc(NC(=O)c2ccc(O)c(O)c2)nc1-c1ccc(O)cc1 | 0% |  |  | 93.4%
O=C(Nc1nc(-c2ccc(O)cc2)c(Cc2ccccc2)s1)c1cc(O)c(O)c(O)c1 | 44.1% |  | 89.4% | 
COc1ccc(-c2nc(N)sc2CC2CCCCC2)cc1 | 79.8% |  | 0% | 
O=C(CCc1ccc(O)c(O)c1)Nc1nc(-c2ccc(O)cc2)c(Cc2ccccc2)s1 | 25.3% |  | 75.7% | 
CCCCc1sc(NC(=O)c2cc(O)c(O)c(O)c2)nc1-c1ccc(O)cc1 | 27.3% |  |  | 100%
Cc1sc(NC(=O)c2ccc(O)c(O)c2)nc1-c1ccc(O)cc1 | 58.7% |  |  | 71.9%
O=C(Nc1nc(-c2ccccc2)c(Cc2ccc([N+](=O)[O-])cc2)s1)c1ccc(O)c(O)c1 | 0% |  |  | 100%
COc1ccc(-c2nc(N3CCNCC3)sc2Cc2ccccc2)cc1 | 74.5% | 100% |  | 
O=C(Nc1nc(-c2ccc(O)cc2)c(Cc2ccccc2)s1)c1ccc(O)cc1O | 88% |  | 11.5% | 
O=C(Nc1nc(-c2ccc(O)cc2)c(Cc2ccccc2)s1)c1ccc(Cl)cc1 | 80.4% |  | 0% | 
O=C(Nc1nc(-c2ccc(O)cc2)c(CCc2ccccc2)s1)c1ccc(O)c(O)c1 | 0% |  |  | 97%
O=C(Nc1nc(-c2ccc(O)cc2)c(CC2CCCCC2)s1)c1ccc(O)c(O)c1 | 6% |  | 81.6% | 
O=C(Nc1nc(-c2ccc(O)cc2)c(Cc2ccc([N+](=O)[O-])cc2)s1)c1ccc(O)c(O)c1 | 30.4% |  |  | 67.6%
COc1ccc(-c2nc(N)sc2CCc2ccccc2)cc1 | 75.8% |  |  | 24%
Cc1sc(NC(=O)c2cc(O)c(O)c(O)c2)nc1-c1ccc(O)cc1 | 85.9% |  |  | 10.7%
O=C(Nc1nc(-c2ccc(O)cc2)c(CC2CCCCC2)s1)c1cc(O)c(O)c(O)c1 | 20.9% |  |  | 100%
O=C(Nc1nc(-c2ccc(F)cc2)c(Cc2ccc([N+](=O)[O-])cc2)s1)c1ccc(O)c(O)c1 | 0% |  |  | 100%
